Test results taken from patent US8008354B2, “Death receptor sensitizing compounds and methods of use therefor” (Burnham Institute for Medical Research, priority 2006, dated 2011).
“Also recorded” adds a separate entry of the source. Counter-ions that a name gives are not always drawn.

Legend:
Assay type in all cases: cell-based, human
PPC-1 cells = test: Annexin V apoptosis of PPC-1 cells with CH-11 and sensitizer, with or without zVAD-fmk; settings: zVAD-fmk 100 μM, annexin V staining
Description: FIG. 6. Characterization of the mechanism of FAS-sensitizing compounds. (A) PPC-1 cells (1×10^5) were seeded in 24 well plates. The next day, cells were treated with CH-11 antibody (100 ng/mL) and 30 μM 6094911, 5809354, or 5569100 with (square) or without (diamond) caspase inhibitor z-VAD-fmk (100 μM). Apoptosis was measured 24 hours later by Annexin V staining, expressing data as percentage of Annexin V-negative (“viable”) cells (mean+SD) (n=3). (B) PPC-1 cells (2×10^5) were seeded in 6 well plates and co-transfected with plasmids encoding Bcl-XL, Crm A, or empty vector along with a green fluorescent protein (GFP) encoding plasmid to identify successfully transfected cells. After 48 hours, cells were treated with CH-11 antibody (100 ng/mL) and 6094911 (30 μM), 5809354 (30 μM), or 5569100 (15 μM). As a positive control, transfected cells were treated with staurosporine (0.5 μM) (STS). Apoptotic cells were identified by morphological assessment of the GFP-positive cells, and data were expressed as the percentage of nonapoptotic (“viable”) cells (mean+SD) (n=3).
Cell death assays. Cell viability was measured by MTT and MTS assays, essentially as described in Schimmer et al. (2004). Absorbance readings were plotted against a standard curve to derive the corresponding cell number, and cell viability was expressed as a percentage relative to untreated cells. Apoptosis was measured by flow cytometric analysis of Annexin V surface expression after staining cells with FITC-anti-Annexin V and propidium iodide (PI) (Biovision, Mountain View, Calif.), as described in Pederson et al. (2002).
To further assess the mechanism of the 8 compounds that selectively modulated tumor sensitivity to extrinsic pathway stimuli, the effects of benzoyl-Val-Ala-Asp-fluoromethylketone (zVAD-fmk), a broad-spectrum irreversible inhibitor of caspase-family proteases (Enzyme Systems, Dublin, Calif.) was tested. Accordingly, PPC-1 cells were treated with CH-11 and sensitizers such as 6094911, 5809354, and 5569100 with and without zVAD-fmk (100 μM) for […]. Apoptosis was then measured by annexin V staining.

FLIP = FLIP protein levels by SDS-PAGE/immunoblotting
Description: (§1) FIG. 7. Effect of FAS-sensitizing compounds on levels of FLIP protein and DISC activation. (A) PPC-1 cells (2×10^5) were seeded into 35 mm plates and treated the next day with various FAS-sensitizing compounds (30 μM), with (+) or without (−) CH-11 antibody (100 ng/mL). As a positive control, cells were treated with CDDO (5 μM). Cell lysates were prepared 24 hours later, normalized for total protein content, and analyzed by SDS-PAGE/immunoblotting using antibodies specific for FLIP or a-tubulin. (B) PPC-1, OVCAR-3, T47D, MDA-MB-468 and DU 145 cells (2×10^5) were seeded into 35 mm plates and treated the next day with 5809354 (40 μM). Cell lysates were prepared 24 hours after treatment, normalized for total protein and analyzed by SDS-PAGE/immunoblotting using antibodies specific for FLIP or β-actin. (C) PPC-1, OVCAR-3, T47D, and DU 145 cells (2×10^5) were seeded into 35 mm plates and treated the next day with 5809354 (40 μM) (black bars) or buffer control (white bars). mRNA was extracted 24 hours after treatment. Levels of the long isoform of FLIP and GAPDH were detected by quantitative RT-PCR. Levels of FLIP were normalized for GAPDH expression and expressed as a mean fold change+SD over buffer treated cells. (D) PPC-1 cells (2×10^5) were seeded into 35 mm plates and treated the next day with various FAS-sensitizing compounds (30 μM) with (+) or without (−) CH-11 (100 ng/mL). Cell lysates were prepared 24 hours after treatment, normalized for total protein, and analyzed by SDS-PAGE/immunoblotting using antibodies specific for caspase-8 and β-actin.
FIG. 13. Small molecule down-regulation of FLIP sensitizes prostate cancer cells to anoikis. (A) PPC-1 cells were seeded overnight in adherent conditions and then treated with increasing concentrations of 5809354 for 16 hours. After incubation, cells were harvested. Total cellular RNA was extracted and mRNA levels of the long isoform of FLIP (FLIPL), the short isoform of FLIP (FLIPS), or rRNA levels of 18S were detected by real-time RT-PCR. Data were normalized using the ΔΔCT method and expressed as the mean±SEM percent of […] expression relative to untreated controls. (B) PPC-1 cells were cultured and treated as in panel A. Total cellular protein was isolated and analyzed by SDS-PAGE immunoblotting using anti-FLIP and anti-Actin antibodies. (C) PPC-1 cells were seeded overnight in adherent conditions and then exposed to increasing concentrations of 5809354 in the presence or absence of Fas-activating antibody (CH-11, 100 ng/mL). Thirty hours after incubation, cell viability was determined using the MTS assay. Data represents the mean±SEM of percent of viable cells. (D) PPC-1 cells were seeded overnight in adherent or suspension conditions and then treated with increasing concentrations of 5809354 for 30 hours. After incubation, apoptosis was measured by flow cytometry to detect cell surface annexin V expression and PI. Data represents the mean±SEM of percent of viable cells. (E) Cells were harvested, fixed, stained with DAPI, and nuclear morphology analyzed by fluorescence microscopy. Arrowheads refer to fragmented nuclei indicative of apoptosis. […] Thirty hours after incubation, cells were harvested and equal volumes plated in a colony formation assay. One week later, cells were stained with methylene blue and the number of colonies counted. Data represents the mean ±SEM percent of colonies relative to untreated controls.
Immunoblot analysis. Protein extracts were obtained by washing cells with phosphate-buffered saline (PBS) [pH 7.4] and suspending the cells in lysis buffer [10 mM Tris (pH 7.4), 150 mM NaCl, 0.1% Triton X-100, 0.5% sodium deoxycholate, and 5 mM EDTA] containing protease inhibitors (Complete tablets; Roche, Indianapolis, Ind.). Immunoblot assays were performed as described in Carter et al. (2005). […]

FLIP mRNA = FLIP mRNA by quantitative RT-PCR; settings: for expression of FLIP mRNA: Example 1, responding and non-responding cell lines, 24 hours, long isoform normalized for GAPDH
Description: as §1
FIG. 13. Small molecule down-regulation of FLIP sensitizes prostate cancer cells to anoikis. (A) PPC-1 cells were seeded overnight in adherent conditions and then treated with increasing concentrations of 5809354 for 16 hours. After incubation, cells were harvested. Total cellular RNA was extracted and mRNA levels of the long isoform of FLIP (FLIPL), the short isoform of FLIP (FLIPS), or rRNA levels of 18S were detected by real-time RT-PCR. Data were normalized using the ΔΔCT method and expressed as the mean±SEM percent of […] expression relative to untreated controls. (B) PPC-1 cells were cultured and treated as in panel A. Total cellular protein was isolated and analyzed by SDS-PAGE immunoblotting using anti-FLIP and anti-Actin antibodies. […] Thirty hours after incubation, cell viability was determined using the MTS assay. […] After incubation, apoptosis was measured by flow cytometry to detect cell surface annexin V expression and PI. […] (E) Cells were harvested, fixed, stained with DAPI, and nuclear morphology analyzed by fluorescence microscopy. […] One week later, cells were stained with methylene blue and the number of colonies counted. […]
Quantitative RT-PCR. […]

[1] = Example 2, PPC-1 cells, increasing concentrations, 16 hours
[2] = PPC-1 cells, 30 μM, with or without CH-11, 24 hours, long isoform

Compound	effect of zVAD-fmk on sensitization to CH-11 (PPC-1 cells)	FLIP protein expression (FLIP; [1])	levels of FLIP protein (FLIP; [2])	levels of FLIP protein (FLIP; non-responding cell lines DU145 and MDA-MB-468, 40 μM, 24 hours)	expression of FLIP mRNA (FLIP mRNA)	FLIP mRNA expression (FLIP mRNA; [1])	levels of FLIP protein (FLIP; PPC-1 cells, 30 μM, with or without CH-11, 24 hours, long isoform, hydrobromide)
4-(4-chloro-2-methylphenoxy)-N-hydroxybutanamide [compound 5809354]	zVAD-fmk blocked sensitization to CH-11	concentration-dependent decrease	decreased levels of FLIP protein	levels of FLIP were decreased	reduced expression of FLIP mRNA	concentration-dependent decrease	
CCn1c(=N)n(CC(=O)c2cc(C(C)(C)C)c(O)c(C(C)(C)C)c2)c2ccccc21 [compound 5569100, 1-(3,5-di-tert-butyl-4-hydroxyphenyl)-2-(3-ethyl-2-imino-2,3-dihydro-1H-benzo[d]imidazol-1-yl)ethanone hydrobromide]	zVAD-fmk blocked sensitization to CH-11				did not reduce FLIP mRNA		decreased levels of FLIP protein; also recorded: reduced FLIP expression
CC(=O)CC(=O)Nc1ccc(Cl)c(C(F)(F)F)c1 [compound 6094911, N-[4-chloro-3-(trifluoromethyl)phenyl]-3-oxobutanamide]	zVAD-fmk blocked sensitization to CH-11		did not alter levels of FLIP protein		did not reduce FLIP mRNA		
